Measurements: patent publication US7935729B2, “Use of triglyceride oils containing γ-linolenic acid residues and linoleic acid residues for the treatment of neurodegenerative disease” (BTG International Limited, priority 2003, dated 2011)
“Also recorded” adds a separate entry of the source. Marks after values point to notes of the source that are not given here.

Assays:
EAE [1] = conditions: depending on dose (Harbige et al); cited from earlier work
EAE [2] = conditions: guinea-pig (Meade et al 1978); cited from earlier work
[3] = tested on: multiple sclerosis patients; conditions: about 20 g/day; cited from earlier work
[4] = tested on: MOG-induced CREAE in SJL Mice; assay: MOG-induced CREAE in SJL mice, molecular species comparison of GLA; format: in vivo; conditions: for Mean Clinical Score / No. with EAE: 100 μl of test lipid
Text: γ-Linolenic acid (18:3n -6, GLA) is known to be rapidly converted to longer-chain omega-6 polyunsaturated fatty acids dihomo-γ-linolenic acid and arachidonic acid in vivo (Phylactos et al 1994, Harbige et al 1995, 2000). Therefore to increase the level of membrane long chain omega-6 fatty acids in MS the inventors have reviewed results obtained with several GLA-containing oils:- both fungal (from Mucor javanicus) and plant (Borago officianalis), Evening primrose Oenothera spp. or Blackcurrant Ribes spp) as well as a synthetic tri-GLA oil as GLA delivery systems in an in vivo experimental animal model of MS known as chronic relapsing experimental autoimmune encephalomyelitis (CREAE).
Experimental autoimmune encephalomyelitis (EAE) is an autoimmune inflammatory disease of the CNS, with or without demyelination, inducible in rodents and other mammalian species. […] Chronic relapsing and demyelinating EAE models (CREAE), which are characterised by demyelination and relapse phases, are therefore currently the animal models of choice for MS research (Fazakerley 1997).

Row | Structure (SMILES) | Protection in acute rat EAE (EAE [1]) | Incidence and severity of EAE (EAE [2]) | Duration and severity of relapses of multiple sclerosis [3] | Mean Clinical Score [4] | No. with EAE [4] | Protective effect in CREAE (in words) ([4]; compared with borage oil)
1 | CCCCC/C=C\C/C=C\C/C=C\CCCCC(=O)O [γ-linolenic acid] | fully protective |  |  |  |  | 
2 | CCCCC/C=C\C/C=C\CCCCCCCC(=O)O [linoleic acid] | dose-dependent action on the clinical severity but did not abolish it | partially suppresses the incidence and severity of EAE | relapses were less frequent, less severe and of shorter duration than controls |  |  | 
3 | CCCCC/C=C\C/C=C\C/C=C\CCCCC(=O)OCC [EE-GLA, Ethyl-Ester-GLA] |  |  |  | 3.0 ± 0.8 | 5/6 | 
4 | CCCCC/C=C\C/C=C\C/C=C\CCCCC(=O)OCC(COC(=O)CCCC/C=C\C/C=C\C/C=C\CCCCC)OC(=O)CCCC/C=C\C/C=C\C/C=C\CCCCC [TG-GLA, Triacylglycerol-GLA] |  |  |  | 1.0 ± 1.3^c | 3/6 | protective effects similar to that of the borage oil; also recorded: effective at a lower dose level than the borage oil
